# Experimental data reported in patent US7109197B2, “N-phenyl-4-(4-pyridyl)-2-pyrimidineamine derivatives” (Syngenta Crop Protection, Inc., priority 2000, dated 2006).
# Read-outs that look alike come from different tables or passages of the source.
# Tests used:
# Septoria nodorum = assay: Assay B-12: Effect against Septoria nodorum/wheat (Septoria leaf spot on wheat); format: in vivo; details: Septoria nodorum on wheat cv. Arina, 0.02% active substance, spray
# Botrytis cinerea [1] = assay: Assay B-8: Effect against Botrytis cinerea/tomato (Botrytis on tomatoes); format: in vivo; details: Botrytis cinerea on tomato cv. Roter Gnom; 0.02% active substance, spray
# Description: Assay B-8: Effect Against Botrytis cinerea/Tomato (Botrytis on Tomatoes) 4 week old tomato plants cv. Roter Gnom are treated with the formulated testcompound 0.02% active substance) in a spray chamber. Two days after application tomato plants are inoculated by spraying a spore suspension (1×10^5 conidia/ml) on the test plants. After an incubation period of 4 days at 20° C. and 95% r. h. in a greenhouse the disease incidence is assessed.
# Erysiphe graminis = assay: Assay B-6: Effect against Erysiphe graminis on barley (powdery mildew); residual protective / systemic activity; format: in vivo; details: 0.02% active substance spray (residual) or 0.002% soil (systemic), variant not stated
# Description: Assay B-6: Effect Against Erysiphe graminis on Barley (Powdery Mildew on Barley) a) Residual Protective Activity […] The infected plants are placed in a greenhouse at 22°. 12 days after infection, the fungal attack is evaluated. b) Systemic Activity […] […] 48 hours later, the plants are dusted with conidia of the fungus. The infected plants are placed in a greenhouse at 22° C. 12 days after infection, the disease incidence is evaluated.
# Pyricularia oryzae = format: in vivo; details: Pyricularia oryzae on rice cv. Sasanishiki; 0.02% active substance, spray
# Fusarium culmorum = format: in vivo
# [2] = test system: Pyrenophora teres (Helminthosporium); assay: Assay B-10: Effect against Pyrenophora teres (Helminthosporium)/barley (net blotch on barley); format: in vivo; details: Pyrenophora teres on barley cv. Regina, 0.02% active substance, spray
# Procedure, shortened: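 One-week-old barley cv. Regina sprayed with formulated compound at 0.02% active substance, then inoculated 2 days later with 3×10^4 conidia/ml. Held 2 days at 20° C/95% r.h., then 2 days at 20° C/60% r.h.; disease incidence scored 4 days after inoculation.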
# Venturia inaegualis = assay: Assay B-5: Residual protective activity against Venturia inaegualis on apples (scab on apple); format: in vivo; details: Venturia inaegualis on apple seedlings cv. McIntosh; 0.02% active substance, spray
# Description: Assay B-5: Residual Protective Activity Against Venturia inaegualis on Apples (Scab on Apple) 4 week old apple seedlings cv. McIntosh are treated with the formulated testcompound (0.02% active substance) in a spray chamber. One day after application apple plants are inoculated by spraying a spore suspension (4×10^5 conidia/ml) on the test plants. After an incubation period of 4 days at 21° C. and 95% r. h. the plants are placed for 4 days at 21° C. and 60% r. h. in a greenhouse. After another 4 day incubation period at 21° C. and 95% r. h. the disease incidence is assessed.
# Botrytis cinerea [3] = assay: Assay B-7: Botrytis cinerea/grape (Botrytis on grapes); format: in vivo; details: Botrytis cinerea on grape seedlings cv. Gutedel; 0.02% active substance, spray
# Description: Assay B-7: Botrytis cinerea/Grape (Botrytis on Grapes) 5 week old grape seedlings cv. Gutedel are treated with the formulated testcompound (0.02% active substance) in a spray chamber. Two days after application grape plants are inoculated by spraying a spore suspension (1×10^6 conidia/ml) on the test plants. After an incubation period of 4 days at 21° C. and 95% r. h. in a greenhouse the disease incidence is assessed.
# [4] = Fusarium culmorum, wheat seeds cv. Orestis in pouch, 0.002% active substance
SMILES,B12 activity (Septoria nodorum),B8 activity (Botrytis cinerea [1]),B6 activity (Erysiphe graminis),B9 activity (Pyricularia oryzae),B11 activity (Fusarium culmorum; in vivo),B10 activity [2],B5 activity (Venturia inaegualis),B7 activity (Botrytis cinerea [3]),melting point,B11 activity (Fusarium culmorum; [4]),"pest or weed control at 0.02 % strength ([2]; 96 h, read-out: B10 activity)","pest or weed control at 0.02 % strength (Septoria nodorum; Parastagonospora nodorum, 264 h, read-out: B12 activity)"
CCC(COC)Nc1cc(-c2ccnc(Nc3cccc(Cl)c3)n2)ccn1 (stereo not drawn) [Compound 4],+ (the activity observed in the corresponding test system is 70% or more),+ (the activity observed in the corresponding test system is 70% or more),+ (the activity observed in the corresponding test system is 70% or more),+ (the activity observed in the corresponding test system is 70% or more),+ (key: +: the activity observed in the corresponding test system is 70% or more),,,,,,,
CCC(CO)Nc1cc(-c2ccnc(Nc3cccc(Cl)c3)n2)ccn1 (stereo not drawn) [Compound 31],,+ (the activity observed in the corresponding test system is 70% or more),,,+ (key: +: the activity observed in the corresponding test system is 70% or more),+ (the activity observed in the corresponding test system is 70% or more),+ (the activity observed in the corresponding test system is 70% or more),+ (the activity observed in the corresponding test system is 70% or more),,,,
CC(=O)Nc1cc(-c2ccnc(Nc3cccc(Cl)c3)n2)ccn1 [Compound 61],,,,,,,,,245 to 247 °C,+ (the activity observed in the corresponding test system is 70% or more),,
CC(=Nc1cc(-c2ccnc(Nc3cccc(Cl)c3)n2)ccn1)N(C)C [Compound 66],+ (the activity observed in the corresponding test system is 70% or more),+ (the activity observed in the corresponding test system is 70% or more),,+ (the activity observed in the corresponding test system is 70% or more),+ (key: +: the activity observed in the corresponding test system is 70% or more),+ (the activity observed in the corresponding test system is 70% or more),+ (the activity observed in the corresponding test system is 70% or more),+ (the activity observed in the corresponding test system is 70% or more),,,,
CC(C)Nc1cc(-c2ccnc(Nc3cccc(Cl)c3)n2)ccn1 [Compound 68],,+ (the activity observed in the corresponding test system is 70% or more),,,,,,,184 to 185 °C,+ (the activity observed in the corresponding test system is 70% or more),> 70%,> 70%
